Measurements as given in BigSolDB 2.1.

Molecule Cc1c(C(=O)O)cccc1[N+](=O)[O-] has a solubility (mole fraction) (in 1,4-dioxane, 285.65 K) of 0.0704, a solubility (mole fraction) (in 1,4-dioxane, 288.15 K) of 0.0718 and a solubility (mole fraction) (in 1,4-dioxane, 290.65 K) of 0.0734. The solubility (mole fraction) (in 1,4-dioxane, 293.15 K) was 0.0749, the solubility (mole fraction) (in 1,4-dioxane, 295.65 K) was 0.0764 and the solubility (mole fraction) (in 1,4-dioxane, 298.15 K) was 0.0779. The solubility (mole fraction) (in 1,4-dioxane, 300.65 K) was 0.0796, the solubility (mole fraction) (in 1,4-dioxane, 303.15 K) was 0.0814 and the solubility (mole fraction) (in 1,4-dioxane, 305.65 K) was 0.0831. For the same molecule, the solubility (mole fraction) (in 1,4-dioxane, 308.15 K) was 0.0847, the solubility (mole fraction) (in 1,4-dioxane, 310.65 K) was 0.0865 and the solubility (mole fraction) (in 1,4-dioxane, 313.15 K) was 0.0884. For the same molecule, the solubility (mole fraction) (in 1,4-dioxane, 315.65 K) was 0.0902, the solubility (mole fraction) (in 1,4-dioxane, 318.15 K) was 0.0921 and the solubility (mole fraction) (in 2-butanone, 283.15 K) was 0.0528. It also gave a solubility (mole fraction) (in 2-butanone, 285.65 K) of 0.0544, a solubility (mole fraction) (in 2-butanone, 288.15 K) of 0.056 and a solubility (mole fraction) (in 2-butanone, 290.65 K) of 0.0576. For the same molecule, the solubility (mole fraction) (in 2-butanone, 293.15 K) was 0.0592, the solubility (mole fraction) (in 2-butanone, 295.65 K) was 0.0609 and the solubility (mole fraction) (in 2-butanone, 298.15 K) was 0.0626. It also gave a solubility (mole fraction) (in 2-butanone, 300.65 K) of 0.0645, a solubility (mole fraction) (in 2-butanone, 303.15 K) of 0.0664 and a solubility (mole fraction) (in 2-butanone, 305.65 K) of 0.0683. The solubility (mole fraction) (in 2-butanone, 308.15 K) was 0.0703, the solubility (mole fraction) (in 2-butanone, 310.65 K) was 0.0722 and the solubility (mole fraction) (in 2-butanone, 313.15 K) was 0.0741. It also gave a solubility (mole fraction) (in 2-butanone, 315.65 K) of 0.0764, a solubility (mole fraction) (in 2-butanone, 318.15 K) of 0.0786 and a solubility (mole fraction) (in acetone, 283.15 K) of 0.0601. For the same molecule, the solubility (mole fraction) (in acetone, 285.65 K) was 0.0614, the solubility (mole fraction) (in acetone, 288.15 K) was 0.0627 and the solubility (mole fraction) (in acetone, 290.65 K) was 0.0641. For the same molecule, the solubility (mole fraction) (in acetone, 293.15 K) was 0.0655, the solubility (mole fraction) (in acetone, 295.65 K) was 0.0668 and the solubility (mole fraction) (in acetone, 298.15 K) was 0.0684. It also gave a solubility (mole fraction) (in acetone, 300.65 K) of 0.0699, a solubility (mole fraction) (in acetone, 303.15 K) of 0.0715 and a solubility (mole fraction) (in acetone, 305.65 K) of 0.0728. The solubility (mole fraction) (in acetone, 308.15 K) was 0.0745, the solubility (mole fraction) (in acetone, 310.65 K) was 0.0761 and the solubility (mole fraction) (in acetone, 313.15 K) was 0.0777. For the same molecule, the solubility (mole fraction) (in acetone, 315.65 K) was 0.0793, the solubility (mole fraction) (in acetone, 318.15 K) was 0.0808 and the solubility (mole fraction) (in acetonitrile, 283.15 K) was 0.00849. The solubility (mole fraction) (in acetonitrile, 285.65 K) was 0.00919, the solubility (mole fraction) (in acetonitrile, 288.15 K) was 0.00993 and the solubility (mole fraction) (in acetonitrile, 290.65 K) was 0.0107. It also gave a solubility (mole fraction) (in acetonitrile, 293.15 K) of 0.0117, a solubility (mole fraction) (in acetonitrile, 295.65 K) of 0.0127 and a solubility (mole fraction) (in acetonitrile, 298.15 K) of 0.0138. For the same molecule, the solubility (mole fraction) (in acetonitrile, 300.65 K) was 0.0149, the solubility (mole fraction) (in acetonitrile, 303.15 K) was 0.0161 and the solubility (mole fraction) (in acetonitrile, 305.65 K) was 0.0172. The solubility (mole fraction) (in acetonitrile, 308.15 K) was 0.0186, the solubility (mole fraction) (in acetonitrile, 310.65 K) was 0.0199 and the solubility (mole fraction) (in acetonitrile, 313.15 K) was 0.0211. The solubility (mole fraction) (in acetonitrile, 315.65 K) was 0.0226, the solubility (mole fraction) (in acetonitrile, 318.15 K) was 0.0242 and the solubility (mole fraction) (in ethanol, 283.15 K) was 0.0149. The solubility (mole fraction) (in ethanol, 285.65 K) was 0.0165, the solubility (mole fraction) (in ethanol, 288.15 K) was 0.0186 and the solubility (mole fraction) (in ethanol, 290.65 K) was 0.0207. For the same molecule, the solubility (mole fraction) (in ethanol, 293.15 K) was 0.0232, the solubility (mole fraction) (in ethanol, 295.65 K) was 0.0259 and the solubility (mole fraction) (in ethanol, 298.15 K) was 0.0286. For the same molecule, the solubility (mole fraction) (in ethanol, 300.65 K) was 0.0317, the solubility (mole fraction) (in ethanol, 303.15 K) was 0.0351 and the solubility (mole fraction) (in ethanol, 305.65 K) was 0.0388. The solubility (mole fraction) (in ethanol, 308.15 K) was 0.043, the solubility (mole fraction) (in ethanol, 310.65 K) was 0.0475 and the solubility (mole fraction) (in ethanol, 313.15 K) was 0.0524. For the same molecule, the solubility (mole fraction) (in ethanol, 315.65 K) was 0.0579, the solubility (mole fraction) (in ethanol, 318.15 K) was 0.064 and the solubility (mole fraction) (in ethyl acetate, 283.15 K) was 0.0312. For the same molecule, the solubility (mole fraction) (in ethyl acetate, 285.65 K) was 0.0325, the solubility (mole fraction) (in ethyl acetate, 288.15 K) was 0.0341 and the solubility (mole fraction) (in ethyl acetate, 290.65 K) was 0.0357. It also gave a solubility (mole fraction) (in ethyl acetate, 293.15 K) of 0.0373, a solubility (mole fraction) (in ethyl acetate, 295.65 K) of 0.039 and a solubility (mole fraction) (in ethyl acetate, 298.15 K) of 0.0406. The solubility (mole fraction) (in ethyl acetate, 300.65 K) was 0.0423, the solubility (mole fraction) (in ethyl acetate, 303.15 K) was 0.0442 and the solubility (mole fraction) (in ethyl acetate, 305.65 K) was 0.046. For the same molecule, the solubility (mole fraction) (in ethyl acetate, 308.15 K) was 0.0478, the solubility (mole fraction) (in ethyl acetate, 310.65 K) was 0.0499 and the solubility (mole fraction) (in ethyl acetate, 313.15 K) was 0.0518. It also gave a solubility (mole fraction) (in ethyl acetate, 315.65 K) of 0.054, a solubility (mole fraction) (in ethyl acetate, 318.15 K) of 0.056 and a solubility (mole fraction) (in isopropanol, 283.15 K) of 0.0129. It also gave a solubility (mole fraction) (in isopropanol, 285.65 K) of 0.0145, a solubility (mole fraction) (in isopropanol, 288.15 K) of 0.0164 and a solubility (mole fraction) (in isopropanol, 290.65 K) of 0.0184. It also gave a solubility (mole fraction) (in isopropanol, 293.15 K) of 0.0206, a solubility (mole fraction) (in isopropanol, 295.65 K) of 0.023 and a solubility (mole fraction) (in isopropanol, 298.15 K) of 0.0259. It also gave a solubility (mole fraction) (in isopropanol, 300.65 K) of 0.0289, a solubility (mole fraction) (in isopropanol, 303.15 K) of 0.0324 and a solubility (mole fraction) (in isopropanol, 305.65 K) of 0.0362. For the same molecule, the solubility (mole fraction) (in isopropanol, 308.15 K) was 0.0396, the solubility (mole fraction) (in isopropanol, 310.65 K) was 0.0438 and the solubility (mole fraction) (in isopropanol, 313.15 K) was 0.0485. For the same molecule, the solubility (mole fraction) (in isopropanol, 315.65 K) was 0.0533, the solubility (mole fraction) (in isopropanol, 318.15 K) was 0.0587 and the solubility (mole fraction) (in methanol, 283.15 K) was 0.0162. The solubility (mole fraction) (in methanol, 285.65 K) was 0.018, the solubility (mole fraction) (in methanol, 288.15 K) was 0.0202 and the solubility (mole fraction) (in methanol, 290.65 K) was 0.0225. It also gave a solubility (mole fraction) (in methanol, 293.15 K) of 0.0255, a solubility (mole fraction) (in methanol, 295.65 K) of 0.0286 and a solubility (mole fraction) (in methanol, 298.15 K) of 0.0319. For the same molecule, the solubility (mole fraction) (in methanol, 300.65 K) was 0.0354, the solubility (mole fraction) (in methanol, 303.15 K) was 0.0392 and the solubility (mole fraction) (in methanol, 305.65 K) was 0.0436. The solubility (mole fraction) (in methanol, 308.15 K) was 0.0483, the solubility (mole fraction) (in methanol, 310.65 K) was 0.0529 and the solubility (mole fraction) (in methanol, 313.15 K) was 0.0579. It also gave a solubility (mole fraction) (in methanol, 315.65 K) of 0.0634, a solubility (mole fraction) (in methanol, 318.15 K) of 0.0685 and a solubility (mole fraction) (in n-propanol, 283.15 K) of 0.0111. For the same molecule, the solubility (mole fraction) (in n-propanol, 285.65 K) was 0.0127, the solubility (mole fraction) (in n-propanol, 288.15 K) was 0.0144 and the solubility (mole fraction) (in n-propanol, 290.65 K) was 0.0162. It also gave a solubility (mole fraction) (in n-propanol, 293.15 K) of 0.0182, a solubility (mole fraction) (in n-propanol, 295.65 K) of 0.0205 and a solubility (mole fraction) (in n-propanol, 298.15 K) of 0.0231. It also gave a solubility (mole fraction) (in n-propanol, 300.65 K) of 0.0258, a solubility (mole fraction) (in n-propanol, 303.15 K) of 0.0291 and a solubility (mole fraction) (in n-propanol, 305.65 K) of 0.0326. For the same molecule, the solubility (mole fraction) (in n-propanol, 308.15 K) was 0.0365, the solubility (mole fraction) (in n-propanol, 310.65 K) was 0.0404 and the solubility (mole fraction) (in n-propanol, 313.15 K) was 0.0455. For the same molecule, the solubility (mole fraction) (in n-propanol, 315.65 K) was 0.0506 and the solubility (mole fraction) (in n-propanol, 318.15 K) was 0.0556.
